Assays:
Format in all cases: cell-based, human
[1] = test system: HT-29; test: Hydrogen peroxide level, H2DCFDA probe; settings: compound at IC50, 24 h, vs control
Experimental: Cellular H2O2 levels were assessed using 2′,7′-dichlorodihydrofluorescein diacetate (H2DCFDA, Sigma-Aldrich, St. Louis, MO, USA), a well-established fluorogenic probe for intracellular hydrogen peroxide detection. H2DCFDA readily diffuses across the cell membrane and is subsequently hydrolyzed by intracellular esterases to non-fluorescent H2DCF. Oxidation of H2DCF by ROS generates highly fluorescent 2′,7′-dichlorofluorescein (DCF), which accumulates in the cytosol. […] The fluorescence intensity of DCF is directly proportional to the concentration of ROS within the cell.
(§1) Cells were seeded in black 96-well fluorometric microplates at a density of 10 × 10^3 cells/mL. […] Following compound incubation, the medium was removed, and the cell monolayers were washed twice with HBSS (140 mM NaCl, 5 mM KCl, 0.8 mM MgCl2, 1.8 mM CaCl2, 1 mM Na2HPO4, 10 mM HEPES, and 1% glucose). A volume of 50 µL of H2DCFDA solution in HBSS (final concentration 5 μM) was added to each well, and the cells were incubated for 30 min in the dark at 37 °C. After incubation with the H2DCFDA, fluorescence measurements were conducted using a Perkin-Elmer LS-5B spectrofluorometer (MA, USA) at the following excitation and fluorescence emission wavelengths: λex = 498 nm/λem = 522 nm. The fluorescence intensity of control cells was arbitrarily assigned a value of 100%. The results were expressed as percentages of control, calculated by comparing the fluorescence intensity ratio of the test samples to controls (100%). The fluorescence of samples was denoted as Δf in relation to the control.

[2] = test system: HT-29; test: Autophagy induction, monodansylcadaverine (MDC) fluorescence; settings: compound at IC50, 24 h, vs control
Experimental: Autophagy induction in cells treated with the tested drugs was determined by measuring Monodansylcadaverine (MDC; Sigma-Aldrich; St. Louis, MO, USA) fluorescence according to a modified method described by Vázquez. […] In the cell, MDC accumulates in lipid-rich cell membranes. It has been shown that MDC can be used as a dye for detecting autophagy, as it accumulates in autophagolysosomes as a result of interaction with membrane lipids.
Cells were seeded in black 96-well fluorometric microplates at a density of 10 × 10^3 cells/mL. […] Following compound incubation, the medium was removed, and the cell monolayers were washed twice with HBSS (140 mM NaCl, 5 mM KCl, 0.8 mM MgCl2, 1.8 mM CaCl2, 1 mM Na2HPO4, 10 mM HEPES, and 1% glucose). A solution of MDC at a final concentration of 50 μM was added to each well and incubated in a CO2 cell culture incubator at 37 °C for 15 min. After incubation with MDC, the probe was removed, and the cells were lysed with 50 μL of lysis buffer (10 mM TRIS-HCl; pH 8 containing 0.1% Triton X-100). After lysis, fluorescence was measured at an excitation wavelength of λex = 390 nm and an emission wavelength of λem = 460 nm using a Perkin-Elmer LS-5B spectrofluorometer (Waltham, MA, USA). In order to normalize the number of cells in individual samples, the amount of DNA was determined by adding 50 μL of EB (final concentration 0.2 mM) to each well after measuring the MCB fluorescence and measuring the EB fluorescence at an excitation wavelength of λex = 530 nm and an emission wavelength of λem = 590 nm. The results were calculated as the ratio of MDC fluorescence to EB fluorescence.

[3] = test system: HT-29; test: Cell cycle analysis via flow cytometry (propidium iodide); settings: compound at IC50, 24 h, vs control
Experimental: The most commonly used fluorescent dyes for cell cycle analysis are fluorochromes that penetrate the cell membrane into the interior of permeabilized cells and bind stoichiometrically to DNA via intercalation, e.g., DAPI, propidium iodide (PI). The analysis is performed on cells fixed in ethanol. In this work, the cell cycle analysis was performed using the method described by Darzynkiewicz and Juan.
Cells (10 × 10^3) were seeded in 35 mm dishes and cultured in the medium for 24 h to attain the logarithmic growth phase. […] Subsequently, cells were trypsinized and centrifuged for 10 min at 400× g at 4 °C. The cell suspension in 100 μL of PBS was fixed in 1 mL of 70% ethanol (−20 °C) and stored at this temperature until analysis. Immediately before analysis, the ethanol-fixed cell suspension was centrifuged at 10,000 rpm for 10 min at 4 °C. The pellet was washed with cold (4 °C) PBS to remove residual ethanol, and the cell suspension was centrifuged again under the same conditions. A volume of 300 μL of PBS containing 4 mg/mL propidium iodide (final concentration 75 μM) and 1 mg/mL RNAse A (final concentration 20 μg/mL) was added to the cell pellet and incubated for at least 30 min at 37 °C in the dark. Stained cells were analyzed using a flow cytometer (Becton Dickinson, Franklin Lakes, NJ, USA), counting 10,000 cells in each sample. Data were analyzed using FlowJo 10.10 software (FlowJo, Williamson Way Ashland, OR, USA).

[4] = test system: colon cancer cells; test: Reactive nitrogen species level, DAF-FM probe, all tested cell lines; settings: any of the tested cell lines, compound at IC50, 24 h
Experimental: Diaminofluorescein-FM diacetate (DAF-FM diacetate, Invitrogen, Carlsbad, CA, USA), a cell-permeable fluorescent probe, is widely utilized for the detection and quantification of reactive nitrogen species (RNS), primarily nitric oxide (NO). […] Upon interaction with NO, however, it undergoes a chemical transformation resulting in the formation of a highly fluorescent benzotriazole derivative with excitation and emission maxima at 495 and 515 nm, respectively.
as §1, with “[…] Fluorescence” for “A volume of 50 µL of H2DCFDA solution in HBSS (final concentration 5 μM) was added to each well, and the cells were incubated for 30 min in the dark at 37 °C. After incubation with the H2DCFDA, fluorescence”, “495” for “498”, “515” for “522”

Row | Compound | Increase in H2O2 levels [1] | Increase in MDC fluorescence intensity (autophagy) [2] | Increase in the G2/M phase cell percentage [3] | Change in RNS levels [4]
1 | O=C1/C(=C/c2ccccc2)COc2ccccc21 [Compound 1] | approximately 25% | 25% | 25% | –
2 | COc1cccc(/C=C2/C(=O)c3ccccc3OC2c2ccccc2)c1 (centres unmarked) [Compound 3] | – | – | – | no significant changes
3 | O=C1/C(=C/c2ccccc2)C(c2ccccc2)Oc2ccccc21 (centres unmarked) [Compound 5] | around 15% | 20% | 25% | no significant changes

From article PMC11641365, “Evaluation of In Vitro Biological Activity of Flavanone/Chromanone Derivatives: Molecular Analysis of Anticancer Mechanisms in Colorectal Cancer” (International Journal of Molecular Sciences, 2024)
